In patent publication US20240270759A1, “Preparation of SHP2 phosphatase inhibitors and its applications” (Ya Therapeutics Inc, priority 2021, published 2024):

Biological target: T1, SHP2 full-length protein (Homo sapiens, UniProt Q06124)
T1 construct: purchased BPS Bioscience #79330
T1 sequence (Q06124 1-593): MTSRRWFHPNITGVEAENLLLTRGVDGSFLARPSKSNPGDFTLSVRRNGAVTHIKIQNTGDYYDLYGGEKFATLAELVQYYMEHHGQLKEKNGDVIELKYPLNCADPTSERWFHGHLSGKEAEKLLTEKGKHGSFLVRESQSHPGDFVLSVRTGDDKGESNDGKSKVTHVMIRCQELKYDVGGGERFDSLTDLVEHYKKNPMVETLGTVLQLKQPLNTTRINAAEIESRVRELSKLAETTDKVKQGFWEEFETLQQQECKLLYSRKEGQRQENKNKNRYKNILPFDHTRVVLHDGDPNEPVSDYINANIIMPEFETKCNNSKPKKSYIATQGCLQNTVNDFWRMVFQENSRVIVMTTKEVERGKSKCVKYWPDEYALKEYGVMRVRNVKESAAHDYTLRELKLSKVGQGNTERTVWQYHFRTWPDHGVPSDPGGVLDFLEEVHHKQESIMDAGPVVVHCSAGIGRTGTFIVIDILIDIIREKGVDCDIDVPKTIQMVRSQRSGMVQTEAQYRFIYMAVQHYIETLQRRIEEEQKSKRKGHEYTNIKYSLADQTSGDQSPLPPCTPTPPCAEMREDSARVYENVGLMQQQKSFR
Assay: SHP2 allosteric inhibition experiment (Homogeneous Full Length SHP-2 Assay Kit)
Format: biochemical
Settings: full-length SHP2 0.06 nM with SHP-2 activating peptide; ten-point, 1 μM to 0.05 nM; read-out: IC50 Values of Compounds Inhibiting SHP2

Molecule | IC50
Nc1nccc(-n2c(=O)[nH]c3nc(N4CCC5(CC4)Cc4ccccc4[C@H]5N)cnc3c2=O)c1Cl [Compound 18, (S)-7-(1-amino-1,3-dihydrospiro[indene-2,4′-piperidine]-1′-yl)-3-(2-amino-3-chloropyridine-4-yl)pteridine-2,4(1H,3H)-dione] | ≤ 10 nM
C[C@@H]1OCC2(CCN(c3cnc(Sc4cccc(-c5cccnc5)c4Cl)nc3)CC2)[C@@H]1N [Compound 105, (3S,4S)-8-(2-((2-chloro-3-(pyridine-3-yl)phenyl)mercapto)pyrimidine-5-yl)-3-methyl-2-oxa-8-azaspiro[4.5]decane-4-amine] | ≤ 10 nM
C[C@@H]1OCC2(CCN(c3cnc(Sc4cccc(Nc5cccnc5)c4Cl)nc3)CC2)[C@@H]1N [Compound 107, (3S,4S)-8-(2-((2-chloro-3-(pyridine-3-amino)phenyl)mercapto)pyrimidine-5-yl)-3-me thyl-2-oxa-8-azaspiro[4.5]decane-4-amine] | 10 to 100 nM
C[C@@H]1OCC2(CCN(c3ncc4nc(Sc5cccc(-c6ccn(C)n6)c5Cl)ccc4n3)CC2)[C@@H]1N [Compound 90, (3S,4S)-8-(6-((2-chloro-3-(1-methyl-1H-pyrazole-3-yl)phenyl)mercapto)pyridinyl[3,2-b]pyrimidine-2-yl)-3-methyl-2-oxa-8-azaspiro[4.5]decane-4-amine] | ≤ 10 nM
C[C@@H]1OCC2(CCN(c3ncc(Sc4cccc(-c5ccncn5)c4Cl)cn3)CC2)[C@@H]1N [Compound 118, (3S,4S)-8-(5-((2-chloro-3-(pyrimidine-4-yl)phenyl)mercapto)pyrimidine-2-yl)-3-methyl-2-oxa-8-azaspiro[4.5]decane-4-amine] | ≤ 10 nM
CCn1ccc(-c2cccc(Sc3ncc4nc(N5CCC6(CC5)CO[C@@H](C)[C@H]6N)ccc4n3)c2Cl)n1 [Compound 68, (3S,4S)-8-(2-((2-chloro-3-(1-ethyl-1H-pyrazole-3-yl)phenyl)mercapto)pyridinyl[3,2-d]pyrimidine-6-yl)-3-methyl-2-oxa-8-azaspiro[4.5]decane-4-amine] | ≤ 10 nM
C[C@@H]1OCC2(CCN(c3ncc(Sc4cccc(Nc5cccnc5)c4Cl)cn3)CC2)[C@@H]1N [Compound 119, (3S,4S)-8-(5-((2-chloro-3-(pyridine-3-amino)phenyl)mercapto)pyrimidine-2-yl)-3-me thyl-2-oxa-8-azaspiro[4.5]decane-4-amine] | ≤ 10 nM
C[C@@H]1OCC2(CCN(c3ccc4nc(Sc5cccc(Oc6ccn(C)n6)c5Cl)ncc4n3)CC2)[C@@H]1N [Compound 95] | ≤ 10 nM
N-(3-((5-((3S,4S)-4-amino-3-methyl-2-oxa-8-azaspiro[4.5]decane-8-yl)pyridazine-3-yl) mercapto)-2-chlorophenyl)-2-hydroxy-4-oxa-6,7,8,9-tetrahydro-4H-pyridinyl[1,2-a]pyrimidine-3-carboxamide [Compound 136] | ≤ 10 nM
NC1c2ncccc2CC12CCN(c1ccc3c(=O)n(-c4cccc(Cl)c4Cl)c(=O)[nH]c3c1)CC2 (stereo in doubt) [Compound 8, (S)-7-(7-Amino-5,7-dihydrospiro[cyclopenta[b]pyridine-6,4′-piperidine]-1′-yl)-3-(2,3-dichlorophenyl)quinazoline-2,4(1H,3H)-dione] | ≤ 10 nM
C[C@@H]1OCC2(CCN(c3cnc(Sc4cccc(-c5cnccn5)c4Cl)nc3)CC2)[C@@H]1N [Compound 104, (3S,4S)-8-(2-((2-chloro-3-(pyrazine-2-yl)phenyl)mercapto)pyrimidine-5-yl)-3-methyl-2-oxa-8-azaspiro[4.5]decane-4-amine] | ≤ 10 nM
Nc1nccc(-n2c(=O)[nH]c3nc(N4CCC5(CC4)Cc4cnccc4[C@H]5N)ccc3c2=O)c1Cl [Compound 27, (S)-3-(2-amino-3-chloropyridine-4-yl)-7-(5-amino-5,7-dihydrospiro[cyclopenta[c]pyridine-6,4′-piperidine]-1′-yl) pyridinyl[2,3-d]pyrimidine-2,4(1H,3H)-dione] | ≤ 10 nM
